Experimental findings from US6777237B2, “Bioconjugates and delivery of bioactive agents” (University of Utah Research Foundation, priority 1996, dated 2004) are described below.

Series [1] in a line: Anaerobic continuous-wave photolysis of methylcob(III)alamin. In kind it is physicochemical. The conditions noted are these: 514 nm light from an Argon-ion laser. As for the experimental part: A protocol for a typical anaerobic continuous-wave photolysis of methylcob(III)alamin or CH3Cbl^III is as follows. An aqueous solution of 200 μM CH3Cbl^III and 50 mM K^+ Hepes pH 7.3 is placed in a 1 cm quartz cuvette. Samples that are to be photolyzed under anaerobic conditions are either subjected to repeated freeze-pump-thaw cycles, or purged with Ar for 40 minutes immediately prior to photolysis and sealed. Continuous-wave visible light irradiation is accomplished at the desired wavelength with an Ar^+ pumped dye laser. The incident light on the face of the cuvette is reduced to 12 mW cm^−2 with neutral density filters. The light flux is determined by potassium ferrioxalate actinomety and by a Scientech surface-reading thermopile. The cuvette is placed in a thermostated cell holder at 25-37° C. […] The magnetic field within the area of the cuvette is homogeneous to within 2% and the long term stability is better than 0.5% as monitored by a transverse Hall probe and digital teslameter.
Absorption spectra from 300-600 nm are recorded in one second with a diode array spectrophotometer at variable time intervals from 10 seconds to 2 minutes (depending upon the fluence of the photolyzing light source) for a total of 3 τ1/2. […] The concentration of CH3Cbl^III is determined using the measured absorbance at 350 or 520 nm by the method of Chen and Chance (1993). […]

Another series relates to HCT-116 cell line. The series is described as follows: MTT cell viability assay, HCT-116 cell line. In kind it is cell-based, human. The conditions noted are these: for IC50: HCT-116.
The subject of a further series is HL-60 cell line. In words: MTT cell viability assay, HL-60 cell line. In kind it is cell-based, human. Conditions: for IC50: HL-60. For orientation: Tetrazolium dyes change colour on reduction, which living cells bring about.
The test system of another series is B-16 cell line. In words: MTT cell viability assay, B-16 cell line. In kind it is cell-based, mouse.
Another series deals with Meth-A cell line. In words: MTT cell viability assay, Meth-A cell line. In kind it is cell-based, mouse.
In the next series the test system is RD-995 cell line. The series is described as follows: MTT cell viability assay, RD-995 cell line. Format: cell-based, mouse.
Series [2] is described as follows: Thermal stability of bioconjugates in media (UV-vis, then photolysis check). In kind it is physicochemical.
Setting [3] is: Homo sapiens, unconjugated chlorambucil.
The mark [4] stands for this setting: Mus musculus, unconjugated chlorambucil.
[5] abbreviates: Photolysis (10 min irradiation, 1 h after treatment).

A word on the IC50: it is the midpoint of a concentration-inhibition curve.

Regarding `C/C1=C2/[N-][C@H]([C@H](CC(N)=O)[C@@]2(C)CCC(=O)NC[C@@H](C)OP(=O)([O-])O[C@H]2[C@@H](O)[C@@H](n3cnc4cc(C)c(C)cc43)O[C@@H]2CO)[C@]2(C)N=C(/C(C)=C3N=C(/C=C4N=C1[C@@H](CCC(N)=O)C\4(C)C)[C@@H](CCC(N)=O)[C@]\3(C)CC(N)=O)[C@@H](CCC(N)=O)[C@]2(C)CC(N)=O.[CH3-].[Co]` [CH3Cbl^III, methylcob(III)alamin], the photolysis quantum yield entry in series [1] was “about 0.3”.

As to `O=C(O)CCCc1ccc(N(CCCl)CCCl)cc1` [Chlorambucil, reference compound], the LD50 entry with HCT-116 cell line (HCT-116, FIG. 5, chlorambucil alone) is “about 2 μM”; in the series on HL-60 cell line (HL-60, FIG. 6, unconjugated chlorambucil standard), 0.5 µM. Also, the IC50 in the series on HCT-116 cell line (setting [3]) came to 20.8 µM; with HL-60 cell line (setting [3]), 5.8 µM; with B-16 cell line (Mus musculus, B16, unconjugated chlorambucil), 1.4 µM; with Meth-A cell line (setting [4]) it was 1.8 µM; in the series on RD-995 cell line (setting [4]), 1.1 µM.

With “4-[4′-(bis-[2-chloroethyl]amino)phenyl]butyroylcob(III)alamin [compound 4]”, the half-maximal inhibitory concentration (IC50) amounted to 1.1 µM in the series on HCT-116 cell line (setting [5]); 8.9 µM with HL-60 cell line (No Photolysis); 0.3 µM with B-16 cell line (setting [5]); 84.2 µM in the series with Meth-A cell line (No Photolysis); 0.3 µM with Meth-A cell line (setting [5]); 0.3 µM in the series with RD-995 cell line (setting [5]). Also, in series [2], the thermal lability entry is “thermal lability”.

Turning to “2-[4-(4′-[bis-(2-chloroethyl)amino]phenyl)butyroxy]ethylcob(III)alamin [compound 3]”, the LD50 with HCT-116 cell line (HCT-116, FIG. 5, brief irradiation with red light 12 hours after dosing) stood at 0.08 µM; with HCT-116 cell line (HCT-116, FIG. 5, photolysis with 10-fold excess of vitamin B12 added), 2 µM; in the series on HL-60 cell line (HL-60, FIG. 6, bioconjugate, no photolysis), 0.2 µM. For the same compound, the toxicity entry in the series on HCT-116 cell line (HCT-116, FIG. 5, no photolysis, at concentrations approaching 100 μM) is reported as “no substantial toxicity”; with HL-60 cell line (HL-60, FIG. 6, with addition of 10 equivalents of vitamin B12, no photolysis), “absence of toxicity”. The IC50 stood at 1.7 µM in the series with HCT-116 cell line (setting [5]); 3.2 µM in the series with HL-60 cell line (No Photolysis); 0.6 µM in the series on B-16 cell line (setting [5]); 210 µM in the series with Meth-A cell line (No Photolysis); 0.2 µM in the series with Meth-A cell line (setting [5]); 0.2 µM with RD-995 cell line (setting [5]). For the same compound, the “fold better than unconjugated chlorambucil standard (LD50)” value in the series with HL-60 cell line (HL-60, FIG. 6, no photolysis) is listed as “at least 2 fold”. Besides, the thermal lability entry in series [2] is recorded as “thermal lability”.
